From US12310975B2, “Modulators of BCL6 proteolysis and associated methods of use” (Arvinas Operations, Inc., priority 2019, dated 2025) come the findings set out here.

Assay [1] addresses T1, BCL6 (Homo sapiens (Human), UniProt P41182). Briefly: BCL6 TR-FRET assay (BCL6-Avitag-Biotin / BCoR-Cy5 peptide). The class given is binding. The essentials: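 After 30 min room-temperature preincubation of compound titrations with 2 nM biotinylated BCL6-Avitag, 100 nM Cy5-labelled BCoR peptide plus 2 nM Eu-streptavidin were added and TR-FRET read 2 h later. HEPES pH 7.5/125 mM NaCl buffer with Triton X, glutathione (or DTT) and BSA.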

In assay [2] the target is T1, BCL6. Briefly: Immunofluorescence high content imaging of BCL6 degradation in T47D cells. The class given is cell-based. The settings on record: for Dmax: T47D. The essentials:
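Seed T47D in RPMI1640-10% FBS to reach ~70-90% confluence at endpoint; add degrader next day (11-point 3-fold series, top 0.1 or 1 μM final) for 3 days. Then fix, permeabilize, stain BCL6 with nuclear Hoechst, and image.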

Each structure is given as a SMILES string.

The term EC50 denotes the concentration at which the effect is half-maximal. Higher therefore signals a less potent agent. The term IC50 denotes the midpoint of a concentration-inhibition curve. Low values mean greater potency in that assay, high ones weaker potency in that assay. By Dmax is commonly meant the largest share of the target that was removed. Read a high Dmax as a fuller loss of target. `CNC(=O)COc1cc2cc(Nc3nc(N4CCN(CC5CCN(c6ccc7c(c6)C(=O)N(C6CCC(=O)NC6=O)C7=O)CC5)C(=O)C4)ncc3Cl)ccc2n(C)c1=O` (stereo not shown) [compound 201, 2-((6-((5-chloro-2-(4-((1-(2-(2,6-dioxopiperidin-3-yl)-1,3-dioxoisoindolin-5-yl)piperidin-4-yl)methyl)-3-oxopiperazin-1-yl)pyrimidin-4-yl)amino)-1-methyl-2-oxo-1,2-dihydroquinolin-3-yl)oxy)-N-methylacetamide] registered a half-maximal effective concentration (EC50) on BCL6 [1] of 10 to 50 nM. On BCL6 [2], this compound gave an IC50 not below 100 nM and a Dmax not below 70%.
Turning to `CNC(=O)COc1cc2cc(Nc3nc(N4CCC(CN5CCN(c6ccc7c(c6)C(=O)N(C6CCC(=O)NC6=O)C7=O)CC5)CC4)ccc3Cl)ccc2n(C)c1=O` (stereo not shown) [compound 202, 2-((6-((3-chloro-6-(4-((4-(2-(2,6-dioxopiperidin-3-yl)-1,3-dioxoisoindolin-5-yl)piperazin-1-yl)methyl)piperidin-1-yl)pyridin-2-yl)amino)-1-methyl-2-oxo-1,2-dihydroquinolin-3-yl)oxy)-N-methylacetamide], on BCL6 [1], the EC50 is more than 100 nM. Besides, at BCL6 [2], the half-inhibitory concentration (IC50) was 50 to 100 nM and the Dmax was less than 50%.
Consider `CNC(=O)COc1cc2cc(Nc3nc(N4CCN(C(C)(C)C5CCN(c6ccc7c(c6)C(=O)N(C6CCC(=O)NC6=O)C7=O)CC5)CC4)ncc3Cl)ccc2n(C)c1=O` (stereo not shown) [compound 203, 2-((6-((5-chloro-2-(4-(2-(1-(2-(2,6-dioxopiperidin-3-yl)-1,3-dioxoisoindolin-5-yl)piperidin-4-yl)propan-2-yl)piperazin-1-yl)pyrimidin-4-yl)amino)-1-methyl-2-oxo-1,2-dihydroquinolin-3-yl)oxy)-N-methylacetamide], for which, at BCL6 [1], the EC50 is more than 100 nM. Moreover, at BCL6 [2], the IC50 was less than 10 nM and the Dmax was not below 70%.
Take `CNC(=O)COc1cc2cc(Nc3nc(N4CCC(CN5CC6CC5CN6c5ccc6c(c5)C(=O)N(C5CCC(=O)NC5=O)C6=O)CC4)ncc3Cl)ccc2n(C)c1=O` (stereo not shown) [compound 204, 2-((6-((5-chloro-2-(4-((5-(2-(2,6-dioxopiperidin-3-yl)-1,3-dioxoisoindolin-5-yl)-2,5-diazabicyclo [2.2.1]heptan-2-yl)methyl)piperidin-1-yl)pyrimidin-4-yl)amino)-1-methyl-2-oxo-1,2-dihydroquinolin-3-yl)oxy)-N-methylacetamide]: the half-maximal effective concentration (EC50) on BCL6 [1] lay within 10 to 50 nM. At BCL6 [2], the half-maximal inhibitory concentration (IC50) was less than 10 nM and the Dmax is less than 50%.
At BCL6 [1], `Cn1cc(-c2cc3cc(Nc4nc(N5CCC(CN6CCN(c7ccc8c(c7)C(=O)N(C7CCC(=O)NC7=O)C8=O)CC6)CC5)ncc4Cl)ccc3n(C)c2=O)cn1` (stereo not shown) [compound 205, 5-(4-((1-(5-chloro-4-((1-methyl-3-(1-methyl-1H-pyrazol-4-yl)-2-oxo-1,2-dihydroquinolin-6-yl)amino)pyrimidin-2-yl)piperidin-4-yl)methyl)piperazin-1-yl)-2-(2,6-dioxopiperidin-3-yl)isoindoline-1,3-dione] yielded a concentration giving a half-maximal response (EC50) of more than 100 nM. For the same compound, at BCL6 [2], the IC50 is not below 100 nM.
As for `CC(=O)c1cc2cc(Nc3nc(N4CCC(CN5CCN(c6ccc7c(c6)C(=O)N(C6CCC(=O)NC6=O)C7=O)CC5)CC4)ncc3Cl)ccc2n(C)c1=O` (stereo not shown) [compound 206, 5-(4-((1-(4-((3-acetyl-1-methyl-2-oxo-1,2-dihydroquinolin-6-yl)amino)-5-chloropyrimidin-2-yl)piperidin-4-yl)methyl)piperazin-1-yl)-2-(2,6-dioxopiperidin-3-yl)isoindoline-1,3-dione], on BCL6 [1], the EC50 was more than 100 nM. This compound had an IC50 at BCL6 [2] of 50 to 100 nM.
The compound `CNC(=O)COc1cc2cc(Nc3nc(N4CCN(CC5CCN(c6cccc7c6C(=O)N(C6CCC(=O)NC6=O)C7=O)CC5)CC4)ncc3Cl)ccc2n(C)c1=O` (stereo not shown) [compound 207, 2-((6-((5-chloro-2-(4-((1-(2-(2,6-dioxopiperidin-3-yl)-1,3-dioxoisoindolin-4-yl)piperidin-4-yl)methyl)piperazin-1-yl)pyrimidin-4-yl)amino)-1-methyl-2-oxo-1,2-dihydroquinolin-3-yl)oxy)-N-methylacetamide] showed a 50% effective concentration (EC50) on BCL6 [1] of 10 to 50 nM. At BCL6 [2], this compound had a half-inhibitory concentration (IC50) of less than 10 nM and a maximal degradation (Dmax) not below 70%.
`CNC(=O)COc1cc2cc(Nc3nc(N4CCCN(c5ccc6c(c5)C(=O)N(C5CCC(=O)NC5=O)C6=O)CC4)ncc3Cl)ccc2n(C)c1=O` (stereo not shown) [compound 208, 2-((6-((5-chloro-2-(4-(2-(2,6-dioxopiperidin-3-yl)-1,3-dioxoisoindolin-5-yl)-1,4-diazepan-1-yl)pyrimidin-4-yl)amino)-1-methyl-2-oxo-1,2-dihydroquinolin-3-yl)oxy)-N-methylacetamide] displayed an EC50 at BCL6 [1] of 50 to 100 nM. At BCL6 [2], this compound had an IC50 of 50 to 100 nM and a Dmax of 50 to 70%.
The compound `CONC(=O)COc1cc2cc(Nc3nc(N4CCC(CN5CCN(c6ccc7c(c6)C(=O)N(C6CCC(=O)NC6=O)C7=O)CC5)CC4)ncc3Cl)ccc2n(C)c1=O` (stereo not shown) [compound 209, 2-((6-((5-chloro-2-(4-((4-(2-(2,6-dioxopiperidin-3-yl)-1,3-dioxoisoindolin-5-yl)piperazin-1-yl)methyl)piperidin-1-yl)pyrimidin-4-yl)amino)-1-methyl-2-oxo-1,2-dihydroquinolin-3-yl)oxy)-N-methoxyacetamide] yielded a 50% effective concentration (EC50) at BCL6 [1] of more than 100 nM. Further, at BCL6 [2], the half-inhibitory concentration (IC50) lay in the range of 10 to 50 nM and the Dmax is not below 70%.
Regarding `CNC(=O)[C@@H](C)Oc1cc2cc(Nc3nc(N4CCC(CN5CCN(c6ccc7c(c6)C(=O)N([C@H]6CCC(=O)NC6=O)C7=O)CC5)CC4)ncc3Cl)ccc2n(C)c1=O` [compound 210, (R)-2-((6-((5-chloro-2-(4-((4-(2-((S)-2,6-dioxopiperidin-3-yl)-1,3-dioxoisoindolin-5-yl)piperazin-1-yl)methyl)piperidin-1-yl)pyrimidin-4-yl)amino)-1-methyl-2-oxo-1,2-dihydroquinolin-3-yl)oxy)-N-methylpropanamide], the EC50 on BCL6 [1] was 10 to 50 nM. At BCL6 [2], this compound displayed a half-maximal inhibitory concentration (IC50) not below 100 nM.
Taken in the same sequence, the figures for `CNC(=O)[C@H](C)Oc1cc2cc(Nc3nc(N4CCC(CN5CCN(c6ccc7c(c6)C(=O)N([C@H]6CCC(=O)NC6=O)C7=O)CC5)CC4)ncc3Cl)ccc2n(C)c1=O` [compound 211, (S)-2-((6-((5-chloro-2-(4-((4-(2-((S)-2,6-dioxopiperidin-3-yl)-1,3-dioxoisoindolin-5-yl)piperazin-1-yl)methyl)piperidin-1-yl)pyrimidin-4-yl)amino)-1-methyl-2-oxo-1,2-dihydroquinolin-3-yl)oxy)-N-methylpropanamide] were more than 100 nM and not below 100 nM.
Taken in the same sequence, the figures for `CNC(=O)[C@@H](C)Oc1cc2cc(Nc3nc(N4CCC(CN5CCN(c6ccc7c(c6)C(=O)N([C@@H]6CCC(=O)NC6=O)C7=O)CC5)CC4)ncc3Cl)ccc2n(C)c1=O` [compound 212, (R)-2-((6-((5-chloro-2-(4-((4-(2-((R)-2,6-dioxopiperidin-3-yl)-1,3-dioxoisoindolin-5-yl)piperazin-1-yl)methyl)piperidin-1-yl)pyrimidin-4-yl)amino)-1-methyl-2-oxo-1,2-dihydroquinolin-3-yl)oxy)-N-methylpropanamide] were 10 to 50 nM and not below 100 nM.
